This is an account of results in PubChem BioAssay AID1259407 (Chemical Carcinogenesis Research Information System (CCRIS), 2018).

Active and inactive are the calls of the source. No rule for the calls is given here.

In this data set the test system is CCRIS mutagenicity, Ames/micronucleus/aberration tests. The experiment in a line: CCRIS mutagenicity studies.
The mark [1] stands for this setting: Test System: AMES SALMONELLA TYPHIMURIUM, Strain/Indicator: TA100, Metabolic Activation: NONE, Method: STANDARD PLATE.
Setting [2] is: Test System: AMES SALMONELLA TYPHIMURIUM, Strain/Indicator: TA98, Metabolic Activation: NONE, Method: STANDARD PLATE.

Take `N#Cc1ccc(C(=O)ON(OCc2ccccc2)C(=O)c2ccccc2)cc1`: the mutagenic call by setting is: under setting [1], “active; positive”; (Test System: AMES SALMONELLA TYPHIMURIUM, Strain/Indicator: TA100, Metabolic Activation: RAT, S-9, AROCLOR, Method: STANDARD PLATE) “active; positive”.

`O=C(c1ccccc1)[C@H]1O[C@H]1c1ccc(F)cc1`: the mutagenic call is, setting by setting: (Test System: AMES SALMONELLA TYPHIMURIUM, Strain/Indicator: TA98, Metabolic Activation: NONE, Method: PREINCUBATION (PHOSPHATE-BUFFERED KCL OR SOLUTE-FREE WATER MEDIA)) “inactive; negative”; under setting [2], “inactive; negative”; (Test System: AMES SALMONELLA TYPHIMURIUM, Strain/Indicator: TA98, Metabolic Activation: RAT, LIVER, S-9, AROCLOR 1254, Method: STANDARD PLATE) “inactive; negative”; (Test System: AMES SALMONELLA TYPHIMURIUM, Strain/Indicator: TA100, Metabolic Activation: NONE, Method: PREINCUBATION (PHOSPHATE-BUFFERED KCL OR SOLUTE-FREE WATER MEDIA)) “inactive; negative”; under setting [1], “inactive; negative”; (Test System: AMES SALMONELLA TYPHIMURIUM, Strain/Indicator: TA100, Metabolic Activation: RAT, LIVER, S-9, AROCLOR 1254, Method: STANDARD PLATE) “inactive; negative”. The mutagenic call runs as follows: (Test System: AMES SALMONELLA TYPHIMURIUM, Strain/Indicator: TA104, Metabolic Activation: NONE, Method: PREINCUBATION (PHOSPHATE-BUFFERED KCL OR SOLUTE-FREE WATER MEDIA)) “inactive; negative”; (Test System: CHINESE HAMSTER V-79, Strain/Indicator: V-79 (HPRT)/6-THIOGUANINE, Metabolic Activation: NONE) “inactive; negative”.

As to `Nc1ccc2c(c1)Cc1cc([N+](=O)[O-])ccc1-2`, the mutagenic call (Test System: AMES SALMONELLA TYPHIMURIUM, Strain/Indicator: TA98, Metabolic Activation: HAMSTER, LIVER, S-9, 3-METHYLCHOLANTHRENE, Method: STANDARD PLATE) was “active; positive” and the mutagenic call (Test System: AMES SALMONELLA TYPHIMURIUM, Strain/Indicator: TA98, Metabolic Activation: HAMSTER, LIVER, S-9, Method: STANDARD PLATE) was “active; positive”.

Regarding `CC1CCOB(OCCC(C)OB2OCCC(C)O2)O1` (centres undefined), the mutagenic call runs as follows: (Test System: MOUSE LYMPHOMA, Strain/Indicator: L5178Y (TK+/TK-), Metabolic Activation: NONE, Method: SUSPENSION/PLATE) “inactive; negative. reevaluation of results: negative”; (Test System: MOUSE LYMPHOMA, Strain/Indicator: L5178Y (TK+/TK-), Metabolic Activation: RAT, LIVER, S-9, AROCLOR 1254, Method: SUSPENSION/PLATE) “inactive; negative. reevaluation of results: negative”.

Consider `Cc1cc2ccccc2c2cc3c(cc12)[C@H](O)[C@@H](O)C=C3`, for which the mutagenic call (Test System: AMES SALMONELLA TYPHIMURIUM, Strain/Indicator: TA100, Metabolic Activation: RAT, LIVER, S-9, AROCLOR 1254, Method: PREINCUBATION) is “active; positive”.

In the case of `Cc1ccc(NCC2(O)OC[C@@H](O)[C@@H](O)[C@@H]2O)cc1` (some centres undefined), the mutagenic call (Test System: AMES SALMONELLA TYPHIMURIUM, Strain/Indicator: TA100, Metabolic Activation: NONE, Method: LIQUID INCUBATION) is “inactive; negative”.

On to `ONc1ccc(Cl)cc1`, for which the mutagenic call is, setting by setting: under setting [2], “inactive; negative”; under setting [1], “inactive; negative”; (Test System: AMES SALMONELLA TYPHIMURIUM, Strain/Indicator: TA1535, Metabolic Activation: NONE, Method: STANDARD PLATE) “inactive; negative”; (Test System: E. COLI, Strain/Indicator: WP2 UVRA(P), Metabolic Activation: NONE, Method: STANDARD PLATE) “inactive; negative”; (Test System: E. COLI, Strain/Indicator: WP2 UVRA, Metabolic Activation: NONE, Method: FLUCTUATION TEST) “inactive; negative”; (Test System: E. COLI, Strain/Indicator: WP2 UVRA, Metabolic Activation: NONE, Method: STANDARD PLATE) “inactive; negative”.

In the case of `CCCN=NC(C)(C)OO`, the mutagenic call (Test System: AMES SALMONELLA TYPHIMURIUM, Strain/Indicator: TA1535, Metabolic Activation: NONE) is “active; positive” and the mutagenic call (Test System: E. COLI, Strain/Indicator: WP2 (HCR-), Metabolic Activation: NONE) is “active; positive”.
